Data reported in patent US10793568B2, “Hormone receptor modulators for treating metabolic conditions and disorders” (ARDELYX, INC., priority 2016, dated 2020).
Read-outs that look alike come from different tables or passages of the source.

Legend:
[1] = biological target: human Farnesoid X receptor ligand-binding domain/Gal4 DNA binding domain chimera (Homo sapiens (Human), UniProt Q96RI1); experiment: Cell-based assay of FXR activation (FXR-UAS-bla HEK 293T beta-lactamase reporter); settings: cellular FXR beta-lactamase reporter assay; for Emax: HEK-293T, extent of activation relative to GW4064, read-out: % Efficacy; for EC50: FXR-UAS-bla HEK 293T cells, 16 h, pEC50 = -log EC50
In short: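 Readout is cleavage of the CCF4 FRET substrate (409 nm excitation, blue 447 nm signal) by beta-lactamase, expressed under UAS control after a Gal4–human FXR LBD chimera is activated in HEK 293T cells. Compounds were added as 3-fold dilutions for 16 h at 37 °C in 2% charcoal-stripped FBS medium. Curves were fit to a 3-parameter logistic equation to give pEC50, with % activation relative to GW4064.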

[2] = biological target: ligand binding domain of human FXR (Homo sapiens (Human), UniProt Q96RI1); experiment: FXR ligand binding assay (LanthaScreen TR-FRET, SRC2-2 peptide recruitment); settings: for pEC50: -log EC50, concentration required to produce 50% activation; for Emax: read-out: % Efficacy
[3] = extent of activation relative to GW4064

human Farnesoid X receptor ligand-binding domain/Gal4 DNA binding domain chimera, sequence (Q96RI1 262-486, change not shown): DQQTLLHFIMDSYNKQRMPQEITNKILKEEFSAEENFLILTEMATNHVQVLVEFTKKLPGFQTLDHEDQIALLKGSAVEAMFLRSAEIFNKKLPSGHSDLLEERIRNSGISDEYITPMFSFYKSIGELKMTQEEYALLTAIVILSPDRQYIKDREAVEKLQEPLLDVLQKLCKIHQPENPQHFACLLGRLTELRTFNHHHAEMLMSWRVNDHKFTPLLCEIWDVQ
human Farnesoid X receptor ligand-binding domain/Gal4 DNA binding domain chimera, sequence (P04386 1-147 partner): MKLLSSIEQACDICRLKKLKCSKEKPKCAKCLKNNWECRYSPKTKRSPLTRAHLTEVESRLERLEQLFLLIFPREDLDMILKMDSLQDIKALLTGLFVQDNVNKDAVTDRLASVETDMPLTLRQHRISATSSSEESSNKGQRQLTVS
ligand binding domain of human FXR, sequence (Q96RI1 262-486): as the sequence (Q96RI1 262-486, change not shown) above

| SMILES | Emax [1] [%] | EC50 [1] [nM] | pEC50 [2] | Emax [2, 3] [%] | Emax [2] [%] |
| --- | --- | --- | --- | --- | --- |
| O=C(O)C1CN(Cc2ccc(N3C[C@@H]4C[C@H]3C[C@H]4OCc3c(-c4c(Cl)cccc4Cl)noc3C3CC3)cc2)C1 [Compound I-160, 1-({4-[(1S,4S,5R)-5-{[5-cyclopropyl-3-(2,6-dichlorophenyl)-1,2-oxazol-4-yl]methoxy}-2-azabicyclo[2.2.1]heptan-2-yl]phenyl}methyl)azetidine-3-carboxylic Acid] | 110 | 1000 | 6.9 | 93 | – |
| O=CN(O)Cc1ccc(N2C[C@@H]3C[C@H]2C[C@H]3OCc2c(-c3c(Cl)cccc3Cl)noc2C2CC2)cc1 [Compound I-161, N-({4-[(1S,4S,5R)-5-{[5-cyclopropyl-3-(2,6-dichlorophenyl)-1,2-oxazol-4-yl]methoxy}-2-azabicyclo[2.2.1]heptan-2-yl]phenyl}methyl)-N-hydroxyformamide] | 102 | 12.6 | 6.9 | 134 | – |
| Fc1cc(CCc2nn[nH]n2)ccc1N1C[C@@H]2C[C@H]1C[C@H]2OCc1c(-c2c(Cl)cccc2Cl)noc1C1CC1 [Compound I-162, (1S,4S,5R)-5-{[5-cyclopropyl-3-(2,6-dichlorophenyl)-1,2-oxazol-4-yl]methoxy}-2-{2-fluoro-4-[2-(2H-1,2,3,4-tetrazol-5-yl)ethyl]phenyl}-2-azabicyclo[2.2.1]heptane] | 105 | 6.31 | 8.1 | 140 | – |
| O=C(CCc1ccc(N2C[C@@H]3C[C@H]2C[C@H]3OCc2c(-c3c(Cl)cccc3Cl)noc2C2CC2)c(F)c1)OCCN(CCO)CCO [Compound I-163, 2-[bis(2-hydroxyethyl)amino]ethyl 3-{4-[(1S,4S,5R)-5-{[5-cyclopropyl-3-(2,6-dichlorophenyl)-1,2-oxazol-4-yl]methoxy}-2-azabicyclo[2.2.1]heptan-2-yl]-3-fluorophenyl}propanoate] | 99 | 1.26 | 7.5 | 154 | – |
| O=C(NCc1nn[nH]n1)c1ccc(N2C[C@@H]3C[C@H]2C[C@H]3OCc2c(-c3c(Cl)cccc3Cl)noc2C2CC2)cc1 [Compound I-164, 4-[(1S,4S,5R)-5-{[5-cyclopropyl-3-(2,6-dichlorophenyl)-1,2-oxazol-4-yl]methoxy}-2-azabicyclo[2.2.1]heptan-2-yl]-N-(2H-1,2,3,4-tetrazol-5-ylmethyl)benzamide] | 118 | 79.4 | 9.7 | 148 | – |
| O=C(O)CNC(=O)c1ccc(N2C[C@@H]3C[C@H]2C[C@H]3OCc2c(-c3c(Cl)cccc3Cl)noc2C2CC2)cc1 [Compound I-165, 2-({4-[(1S,4S,5R)-5-{[5-cyclopropyl-3-(2,6-dichlorophenyl)-1,2-oxazol-4-yl]methoxy}-2-azabicyclo[2.2.1]heptan-2-yl]phenyl}formamido)acetic Acid] | 107 | 20 | 8.4 | 140 | – |
| O=C(NCCS(=O)(=O)O)c1ccc(N2C[C@@H]3C[C@H]2C[C@H]3OCc2c(-c3c(Cl)cccc3Cl)noc2C2CC2)cc1 [Compound I-166, 2-({4-[(1S,4S,5R)-5-{[5-cyclopropyl-3-(2,6-dichlorophenyl)-1,2-oxazol-4-yl]methoxy}-2-azabicyclo[2.2.1]heptan-2-yl]phenyl}formamido)ethane-1-sulfonic Acid] | 114 | 50.1 | 8.7 | 154 | – |
| O=C(O)CNC(=O)c1ccc(N2C[C@@H]3C[C@H]2C[C@H]3OCc2c(-c3c(Cl)cccc3Cl)noc2C2CC2)cc1F [Compound I-167, 2-({4-[(1S,4S,5R)-5-{[5-cyclopropyl-3-(2,6-dichlorophenyl)-1,2-oxazol-4-yl]methoxy}-2-azabicyclo[2.2.1]heptan-2-yl]-2-fluorophenyl}formamido)acetic Acid] | 106 | 7.94 | 8.7 | 152 | – |
| O=C(NCCS(=O)(=O)O)c1ccc(N2C[C@@H]3C[C@H]2C[C@H]3OCc2c(-c3c(Cl)cccc3Cl)noc2C2CC2)cc1F [Compound I-168, 2-({4-[(1S,4S,5R)-5-{[5-cyclopropyl-3-(2,6-dichlorophenyl)-1,2-oxazol-4-yl]methoxy}-2-azabicyclo[2.2.1]heptan-2-yl]-2-fluorophenyl}formamido)ethane-1-sulfonic Acid] | 107 | 100 | 8.6 | 164 | – |
| CS(=O)(=O)CCNC(=O)c1ccc(N2C[C@@H]3C[C@H]2C[C@H]3OCc2c(-c3c(Cl)cccc3Cl)noc2C2CC2)cc1 [Compound I-169, 4-[(1S,4S,5R)-5-{[5-cyclopropyl-3-(2,6-dichlorophenyl)-1,2-oxazol-4-yl]methoxy}-2-azabicyclo[2.2.1]heptan-2-yl]-N-(2-methanesulfonylethyl)benzamide] | 106 | 1.58 | 8.4 | 160 | – |
| CS(=O)(=O)CCNC(=O)c1ccc(N2C[C@@H]3C[C@H]2C[C@H]3OCc2c(-c3c(Cl)cccc3Cl)noc2C2CC2)cc1F [Compound I-170, 4-[(1S,4S,5R)-5-{[5-cyclopropyl-3-(2,6-dichlorophenyl)-1,2-oxazol-4-yl]methoxy}-2-azabicyclo[2.2.1]heptan-2-yl]-2-fluoro-N-(2-methanesulfonylethyl)benzamide] | 103 | 1.26 | 9.4 | 142 | – |
| O=C(NCCS(=O)(=O)C1CC1)c1ccc(N2C[C@@H]3C[C@H]2C[C@H]3OCc2c(-c3c(Cl)cccc3Cl)noc2C2CC2)cc1F [Compound I-171, N-[2-(cyclopropanesulfonyl)ethyl]-4-[(1S,4S,5R)-5-{[5-cyclopropyl-3-(2,6-dichlorophenyl)-1,2-oxazol-4-yl]methoxy}-2-azabicyclo[2.2.1]heptan-2-yl]-2-fluorobenzamide] | 104 | 0.794 | 8.6 | 147 | – |
| O=C(NCCS(=O)(=O)C1CCOCC1)c1ccc(N2C[C@@H]3C[C@H]2C[C@H]3OCc2c(-c3c(Cl)cccc3Cl)noc2C2CC2)cc1F [Compound I-172, 4-[(1S,4S,5R)-5-{[5-cyclopropyl-3-(2,6-dichlorophenyl)-1,2-oxazol-4-yl]methoxy}-2-azabicyclo[2.2.1]heptan-2-yl]-2-fluoro-N-[2-(oxane-4-sulfonyl)ethyl]benzamide] | 110 | 1 | 8.4 | 160 | – |
| Cc1cc(C(=O)NCCP(=O)(O)O)ccc1N1C[C@@H]2C[C@H]1C[C@H]2OCc1c(-c2c(Cl)cccc2Cl)noc1C1CC1 [Compound I-173, [2-({4-[(1S,4S,5R)-5-{[5-cyclopropyl-3-(2,6-dichlorophenyl)-1,2-oxazol-4-yl]methoxy}-2-azabicyclo[2.2.1]heptan-2-yl]-3-methylphenyl}formamido)ethyl]phosphonic Acid] | 114 | 100 | 9.2 | – | 144 |
| Cc1cc(C(=O)NCCP(=O)(OCOC(=O)C(C)(C)C)OCOC(=O)C(C)(C)C)ccc1N1C[C@@H]2C[C@H]1C[C@H]2OCc1c(-c2c(Cl)cccc2Cl)noc1C1CC1 [Compound I-174, ({[2-({4-[(1S,4S,5R)-5-{[5-cyclopropyl-3-(2,6-dichlorophenyl)-1,2-oxazol-4-yl]methoxy}-2-azabicyclo[2.2.1]heptan-2-yl]-3-methylphenyl}formamido)ethyl]({[(2,2-dimethylpropanoyl)oxy]methoxy})phosphoryl}oxy)methyl 2,2-dimethylpropanoate] | 152 | 251 | 8.8 | 161 | – |
| O=P(O)(O)CCc1ccc(N2C[C@@H]3C[C@H]2C[C@H]3OCc2c(-c3c(Cl)cccc3Cl)noc2C2CC2)cc1 [Compound I-175, (2-{4-[(1S,4S,5R)-5-{[5-cyclopropyl-3-(2,6-dichlorophenyl)-1,2-oxazol-4-yl]methoxy}-2-azabicyclo[2.2.1]heptan-2-yl]phenyl}ethyl)phosphonic Acid] | 101 | 631 | 8.2 | – | 120 |
| O=P(O)(O)Cc1ccc(N2C[C@@H]3C[C@H]2C[C@H]3OCc2c(-c3c(Cl)cccc3Cl)noc2C2CC2)cc1 [Compound I-176, ({4-[(1S,4S,5R)-5-{[5-cyclopropyl-3-(2,6-dichlorophenyl)-1,2-oxazol-4-yl]methoxy}-2-azabicyclo[2.2.1]heptan-2-yl]phenyl}methyl)phosphonic Acid] | 92 | 631 | 7.5 | – | 120 |
| COC(=O)c1ccc(N2C[C@@H]3C[C@H]2C[C@H]3OCc2c(-c3c(Cl)cccc3Cl)noc2C2CC2)cc1F [Compound I-177, methyl 4-[(1S,4S,5R)-5-{[5-cyclopropyl-3-(2,6-dichlorophenyl)-1,2-oxazol-4-yl]methoxy}-2-azabicyclo[2.2.1]heptan-2-yl]-2-fluorobenzoate] | 109 | 12.6 | 7.4 | 130 | – |
| O=C(O)c1nnc(N2C[C@@H]3C[C@H]2C[C@H]3OCc2c(-c3c(Cl)cccc3Cl)noc2C2CC2)s1 [Compound I-178, 5-[(1S,4S,5R)-5-{[5-cyclopropyl-3-(2,6-dichlorophenyl)-1,2-oxazol-4-yl]methoxy}-2-azabicyclo[2.2.1]heptan-2-yl]-1,3,4-thiadiazole-2-carboxylic Acid] | 70 | 158 | 6.9 | 86 | – |
